The CC50 is the concentration that lowers cell viability or growth by half. High values mean lower toxicity to the cells, low ones greater toxicity to the cells. One may read the EC50 as the concentration that produces a half-maximal response. The Ki is a measure of affinity in units of concentration, obtained from inhibition or displacement. A low value points to a stronger hold on the target.

SMILES strings stand for the structures.

Results on 14 compounds are retold here after ChEMBL document CHEMBL3085680, “Design and synthesis of P1-P3 macrocyclic tertiary-alcohol-comprising HIV-1 protease inhibitors” (J Med Chem, 2013).

Data set [1] can be described thus: Cytotoxicity against human MT4 cells after 5 days by XTT assay. Format: cell-based. In general terms: Tetrazolium assays rely on reduction of a dye to a coloured formazan, in cell work by metabolically active cells.
In data set [2] the test system is Human immunodeficiency virus. The data set can be described thus: Antiviral activity against HIV infected in human MT4 cells assessed as inhibition of virus-induced cytopathogenic effect by XTT assay. Format: functional, organism-based. To be noted: Human immunodeficiency virus 1, MT4.
The target of a further data set is Protease (Human immunodeficiency virus 1, UniProt Q9YQ12). Description: Inhibition of HIV1 protease expressed in Escherichia coli by fluorometric assay.
Chain of Protease (Q9YQ12 whole entry): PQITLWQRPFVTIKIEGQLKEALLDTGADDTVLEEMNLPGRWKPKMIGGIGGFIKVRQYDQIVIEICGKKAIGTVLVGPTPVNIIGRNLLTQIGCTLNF
The nature of data set [3]: Permeability of the compound across human Caco2 cells. It is filed as ADME, cell-based. To be noted: Caco-2, read-out: permeability.

For the compound `C=CCNC(=O)[C@@H](NC(=O)[C@@](O)(CCCN(Cc1ccc(Br)cc1)NC(=O)[C@@H](NC(=O)OC)C(C)(C)C)Cc1ccc(Br)cc1)C(C)C`, in data set [1], the cytotoxic concentration (CC50) at 120 h amounted to 22 µM. In data set [2], the half-maximal effective concentration (EC50) turned out to be 5.8 µM. This compound also gave a Ki on Protease of 0.011 µM.
Turning to `C=CCNC(=O)[C@@H](NC(=O)[C@@](O)(CCCN(Cc1ccc(Br)cc1)NC(=O)[C@@H](NC(=O)OC)C(C)(C)C)Cc1ccc(Br)cc1)C(C)(C)C`, the CC50 at 120 h in data set [1] came to 29 µM. The half-maximal effective concentration (EC50) in data set [2] turned out to be 2.9 µM. Moreover, on Protease, the inhibitory constant (Ki) came out at 0.01 µM.
Consider `C=CCNC(=O)[C@@H](NC(=O)[C@@](O)(CCCN(Cc1ccc(Br)cc1)NC(=O)[C@@H](NC(=O)OC)C(C)(C)C)Cc1ccc(C=C)cc1)C(C)C`, for which the CC50 at 120 h in data set [1] stood at 25 µM. Besides, the EC50 in data set [2] was 6.9 µM. Also, on Protease, the inhibitory constant (Ki) worked out at 0.015 µM.
`C=CCNC(=O)[C@@H](NC(=O)[C@@](O)(CCCN(Cc1ccc(Br)cc1)NC(=O)[C@@H](NC(=O)OC)C(C)(C)C)Cc1ccc(C=C)cc1)C(C)(C)C` gave a 50% cytotoxic concentration (CC50) at 120 h in data set [1] of 44 µM. Besides, the EC50 in data set [2] is 5.3 µM. Moreover, the affinity on Protease corresponds to a Ki of 0.016 µM. In addition, the Papp in data set [3] was found to be 45 ×10⁻⁶ cm/s.
On the same counts, the results for `C=CCNC(=O)[C@@H](NC(=O)[C@@](O)(CCCN(Cc1ccc(Br)cc1)NC(=O)[C@@H](NC(=O)OC)C(C)(C)C)Cc1ccc(CC=C)cc1)C(C)C` are 24 µM, 6 µM, 0.03 µM and 44 ×10⁻⁶ cm/s.
The matching figures for `C=CCNC(=O)[C@@H](NC(=O)[C@@](O)(CCCN(Cc1ccc(Br)cc1)NC(=O)[C@@H](NC(=O)OC)C(C)(C)C)Cc1ccc(CC=C)cc1)C(C)(C)C`: above 50 µM, 7.5 µM, 0.037 µM and 44 ×10⁻⁶ cm/s.
Regarding `C=CCNC(=O)[C@@H](NC(=O)[C@](O)(CCCN(Cc1ccc(Br)cc1)NC(=O)[C@@H](NC(=O)OC)C(C)(C)C)Cc1ccc(Br)cc1)C(C)C`, half-maximal cytotoxicity in data set [1] (CC50 at 120 h) was put at 4.5 µM. Moreover, the 50% effective concentration (EC50) in data set [2] was above 50 µM. The compound further came in with an inhibition constant Ki on Protease of 1 µM.
`C=CCNC(=O)[C@@H](NC(=O)[C@](O)(CCCN(Cc1ccc(Br)cc1)NC(=O)[C@@H](NC(=O)OC)C(C)(C)C)Cc1ccc(Br)cc1)C(C)(C)C` showed a CC50 at 120 h in data set [1] of 21 µM. Also, the EC50 in data set [2] was above 50 µM. At Protease, this compound showed a Ki of 0.98 µM.
The matching figures for `C=CCNC(=O)[C@@H](NC(=O)[C@](O)(CCCN(Cc1ccc(Br)cc1)NC(=O)[C@@H](NC(=O)OC)C(C)(C)C)Cc1ccc(C=C)cc1)C(C)C`: 5.8 µM, above 50 µM and 0.78 µM.
In turn, `C=CCNC(=O)[C@@H](NC(=O)[C@](O)(CCCN(Cc1ccc(Br)cc1)NC(=O)[C@@H](NC(=O)OC)C(C)(C)C)Cc1ccc(C=C)cc1)C(C)(C)C` returned a 50% cytotoxic concentration (CC50) at 120 h in data set [1] of 25 µM. Also, the EC50 in data set [2] is above 50 µM. The same compound registered an inhibition constant Ki on Protease of 0.72 µM.
In the case of `COC(=O)N[C@H](C(=O)NN(CCC[C@@]1(O)Cc2ccc(cc2)/C=C\CNC(=O)[C@H](C(C)(C)C)NC1=O)Cc1ccc(Br)cc1)C(C)(C)C`, it took 40 µM to reach half-maximal cytotoxicity in data set [1] (CC50 at 120 h). For the same compound, the concentration for a half-maximal effect (EC50) in data set [2] stood at 3.3 µM. For the same compound, the affinity at Protease, expressed as Ki, was 0.005 µM. The Papp in data set [3] amounted to 31 ×10⁻⁶ cm/s.
On the same counts, the results for `COC(=O)N[C@H](C(=O)NN(CCC[C@@]1(O)Cc2ccc(cc2)C/C=C\CNC(=O)[C@H](C(C)C)NC1=O)Cc1ccc(Br)cc1)C(C)(C)C` are above 50 µM, 0.37 µM, 0.0031 µM and 9 ×10⁻⁶ cm/s.
On the same counts, the results for `COC(=O)N[C@H](C(=O)NN(CCC[C@@]1(O)Cc2ccc(cc2)C/C=C\CNC(=O)[C@H](C(C)(C)C)NC1=O)Cc1ccc(Br)cc1)C(C)(C)C` are 30 µM, 1 µM, 0.0042 µM and 10 ×10⁻⁶ cm/s.
The compound `CNC(=O)[C@@H](NC(=O)[C@@](O)(CCCN(Cc1ccc(Br)cc1)NC(=O)[C@@H](NC(=O)OC)C(C)(C)C)Cc1ccccc1)C(C)C` had a CC50 at 120 h in data set [1] above 10 µM. Further, in data set [2], the EC50 worked out at 2.1 µM.
